{"source": "patent US8314092B2", "about": "“Substituted [(5H-pyrrolo[2,1-c][1,4]benzodiazepin-11-yl)piperazin-1-yl]-2,2-dimethylpropanoic acid compounds as dual activity H1 inverse agonists/5-HT2A antagonists” (Eli Lilly and Company, priority 2011, dated 2012)", "key": {"[1]": {"target": "T1, recombinant 5-HT2A receptor (human) (Homo sapiens, UniProt P28223)", "T1 construct": "expressed in transfected cells", "T1 sequence (P28223 whole entry)": "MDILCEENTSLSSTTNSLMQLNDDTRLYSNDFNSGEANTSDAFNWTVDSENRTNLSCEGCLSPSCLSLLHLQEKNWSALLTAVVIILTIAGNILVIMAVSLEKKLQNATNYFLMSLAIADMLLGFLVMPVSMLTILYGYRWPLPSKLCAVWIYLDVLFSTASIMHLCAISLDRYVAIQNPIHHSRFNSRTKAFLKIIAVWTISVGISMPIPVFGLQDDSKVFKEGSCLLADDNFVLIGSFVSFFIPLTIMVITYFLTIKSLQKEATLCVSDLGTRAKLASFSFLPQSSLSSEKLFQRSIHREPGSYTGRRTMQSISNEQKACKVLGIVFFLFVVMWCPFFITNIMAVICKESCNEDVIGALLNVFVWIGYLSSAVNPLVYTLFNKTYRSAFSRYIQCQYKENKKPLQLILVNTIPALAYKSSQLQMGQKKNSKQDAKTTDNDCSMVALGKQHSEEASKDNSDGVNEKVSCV", "test": "5-HT2A competition binding assay ([3H]-Ketanserin SPA)", "experimental": "[^3H]-Ketanserin binding experiments are carried out in SPA 96-well format. Membranes used in this assay are prepared from AV-12 cells stably expressing recombinant 5-HT2A receptor (human). The incubation is initiated by the addition of a mixture of WGA YSi SPA beads (1 mg/well, Perkin Elmer (MA, USA), RPNQ0011) and 2 μg membranes to assay buffer (67 mM Tris, 0.5 mM EDTA; pH 7.6) containing 3.1 nM [^3H]-Ketanserin and varying concentrations of the test compound (10 point concentration response curves). Non-specific binding is determined in the presence of 20 μM 1-(1-Naphthyl)piperazine. Samples were incubated for four hours at room temperature (22° C.) and then read in a Microbeta Trilux.\nCurves are evaluated using a 4-parameter logistic nonlinear equation to obtain the concentration of competitor causing 50% inhibition of radioligand binding (IC50). Equilibrium dissociation constants (Ki) are calculated according to the equation Ki=IC50/(1+L/Kd), where L equals the concentration of radioligand used in the experiment and Kd equals the equilibrium dissociation constant of the radioligand for the receptor, determined from standard saturation analysis or homologous competition experiments. Reported values for Ki, where n values are indicated, are shown as geometric mean±the standard error of the mean (SEM), with the number of replicate determinations indicated by n. […]"}, "H1 receptor": {"target": "T2, H1 receptor (Rattus norvegicus, UniProt P31390)", "T2 construct": "from tissue; host or cells: living rat; frontal cortex", "T2 sequence (P31390 whole entry)": "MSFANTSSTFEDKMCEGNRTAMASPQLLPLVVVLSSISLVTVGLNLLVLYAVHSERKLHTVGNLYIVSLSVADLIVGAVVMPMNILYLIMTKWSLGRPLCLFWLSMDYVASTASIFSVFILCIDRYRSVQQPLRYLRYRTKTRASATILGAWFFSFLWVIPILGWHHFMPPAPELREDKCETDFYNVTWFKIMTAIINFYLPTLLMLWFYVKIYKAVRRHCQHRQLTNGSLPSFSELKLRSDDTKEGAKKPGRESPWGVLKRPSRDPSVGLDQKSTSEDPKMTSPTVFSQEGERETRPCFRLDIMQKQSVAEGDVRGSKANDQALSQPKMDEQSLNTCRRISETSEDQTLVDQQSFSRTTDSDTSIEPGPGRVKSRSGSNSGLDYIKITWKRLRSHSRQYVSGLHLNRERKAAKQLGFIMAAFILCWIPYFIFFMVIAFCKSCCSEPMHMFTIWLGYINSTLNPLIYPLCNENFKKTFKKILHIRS", "test": "Histamine H1 receptor occupancy in vivo (doxepin tracer)", "conditions": "oral gavage, 1 hour before tracer, read-out: H1 RO EC50", "experimental": "Statistical Methods: Curves for each study are fitted to a 4 parameter logistic function with the bottom fixed at 0% using JMP® version 8.0 (SAS Institute Inc, Cary N.C.) and the absolute ED50 is calculated by the software. Values are given as means, standard errors and 95% confidence intervals. […] Briefly, male Sprague-Dawley rats (Harlan Sprague-Dawley, Indianapolis, Ind.) weighing approximately 230-280 grams are given ad lib access to food and water until the beginning of the 3-hour experimental protocol. 3-[4-(8-Fluorodibenzo[b,f][1,4]oxazepin-1′-yl)piperazin-1-yl]-2,2-dimethylpropanoic acid dihydrochloride is used as a positive control and doxepin is used as a tracer. Test compounds and control are administered by oral gavage in a vehicle comprised of 20% hydroxypropyl beta-cyclodextrin. Doxepin is dissolved in sterile water (100 μg/ml), diluted to 2 μg/ml with saline, and administered in a volume of 0.5 mL/kg intravenously via the lateral tail vein to yield a tracer dose of 1 μg/kg. Rats are administered test compound, 15 mg/kg positive control, or vehicle, followed 1 hour later by an intravenous “tracer” dose of doxepin (N=4). It is at the time of tracer administration that RO is considered to be measured. 40 mins after tracer administration, rats are sacrificed by cervical dislocation. Plasma samples are collected and the frontal cortex is removed. […]"}}, "note": "Counter-ions that a name gives are not always drawn.", "data": [{"smiles": "Cc1cc2n(c1)Cc1cc(Cl)ccc1N=C2N1CCN(CC(C)(C)C(=O)O)CC1", "note": "[Example 13, 3-[4-(7-Chloro-2-methyl-5H-pyrrolo[2,1-c][1,4]benzodiazepin-11-yl)piperazin-1-yl]-2,2-dimethylpropanoic acid dihydrochloride]", "values": [{"measurement": "Ki", "setting": "[1]", "result": 0.0632, "unit": "µM"}, {"measurement": "ED50", "setting": "H1 receptor", "result": 0.3, "unit": "mg/kg"}]}]}
